# System: moderate-to-severe chronic spontaneous urticaria (CSU)
# Assay: Phase 2 CSU study: hives severity score over 7 days (HSS7)
# Assay type: in vivo, human
# Parameters: key to HSS7 Change from baseline, Median / HSS7, Median / HSS7, Max / HSS7 Change from baseline, Q1 / HSS7 Change from baseline, Q3 / HSS7 Change from baseline, Max: 7-day sum of daily hive scores, each 0 = none to 3 = >50 hives
# Text: The study comprises a 12 week, randomized, double-blind, placebo-controlled, multi-center, dose-ranging efficacy and safety phase, followed by a 40 week open label extension (OLE) phase (see FIG. 1).
# The study consists of three phases and an optional OLE phase.
# The UAS is a validated PRO measure. The daily UAS is the sum of the daily Hive Severity Score (HSS, ranging from 0=None to 3=more than 50 hives) and the daily Itch Severity Score (ISS, ranging from 0=None to 3=intense), the 2 key urticaria signs and symptoms which are wheals and itch. The daily UAS scores range from 0 to 6 point/day. Daily UAS scores are summed over 7-day period to create the UAS7, ranging from 0 to 42, and are composed of the HSS7 and ISS7 components. […] Patients were to complete the UAS using the e-diary. The e-diary was to be used once daily on the same time of each day recording of participant's answers to the urticaria activity score over 7 days (UAS7) questionnaire. For participants who entered the OLE phase, their answers to the UAS7 questionnaire were also to be collected from Week 20 to Week24 and from Week 48 to Week 52.
# The following secondary endpoints were to be analyzed using the same approach as for the primary endpoint: • Change from baseline in UAS7 at Week 4 • Change from baseline in UAS7 at Week 12 (for US and US reference countries) • Change from baseline in ISS7 at Week 12 (except US and US reference countries) • Change from baseline in HSS7 at Week 12
# [1] = Week 4, 400 mg BID, Omalizumab-Naïve Population
# [2] = Week 4, 400 mg BID, Patients with Prior Omalizumab Use
# [3] = Week 4, 400 mg QPM, Omalizumab-Naïve Population
# [4] = Week 4, 400 mg QPM, Patients with Prior Omalizumab Use
# [5] = Week 4, 400 mg TID, Omalizumab-Naïve Population
# [6] = Week 4, 400 mg TID, Patients with Prior Omalizumab Use
# [7] = Week 5, 400 mg BID, Omalizumab-Naïve Population
# [8] = Week 5, 400 mg BID, Patients with Prior Omalizumab Use
# [9] = Week 5, 400 mg QPM, Omalizumab-Naïve Population
# [10] = Week 5, 400 mg QPM, Patients with Prior Omalizumab Use
# [11] = Week 5, 400 mg TID, Omalizumab-Naïve Population
# [12] = Week 5, 400 mg TID, Patients with Prior Omalizumab Use
# [13] = Week 6, 400 mg BID, Omalizumab-Naïve Population
# [14] = Week 6, 400 mg BID, Patients with Prior Omalizumab Use
# [15] = Week 6, 400 mg QPM, Omalizumab-Naïve Population
# [16] = Week 6, 400 mg QPM, Patients with Prior Omalizumab Use
# [17] = Week 6, 400 mg TID, Omalizumab-Naïve Population
# [18] = Week 6, 400 mg TID, Patients with Prior Omalizumab Use
structure (smiles),measurement,setting,value
"CC(C)(C=C(C#N)C(=O)N1CCC[C@@H](n2nc(-c3ccc(Oc4ccccc4)cc3F)c3c(N)ncnc32)C1)N1CCN(C2COC2)CC1 [rilzabrutinib, (R)-2-[3-[4-amino-3-(2-fluoro-4-phenoxy-phenyl)pyrazolo[3,4-d]pyrimidin-1-yl]piperidine-1-carbonyl]-4-methyl-4-[4-(oxetan-3-yl)piperazin-1-yl]pent-2-enenitrile]","HSS7, Mean (SD)",[1],7.60 (6.00)
same,"HSS7, Median",[1],7.00
same,"HSS7 Change from baseline, Mean (SD)",[1],−6.54 (5.34)
same,"HSS7 Change from baseline, Median",[1],−6.00
same,"HSS7 Percent change from baseline, Mean (SD)",[1],−47.44 (37.17) %
same,"HSS7 Percent change from baseline, Median",[1],−42.86%
same,"HSS7, Mean (SD)",[2],6.80 (8.04)
same,"HSS7, Median",[2],2.00
same,"HSS7 Change from baseline, Mean (SD)",[2],−10.00 (8.34)
same,"HSS7 Change from baseline, Median",[2],−12.00
same,"HSS7 Percent change from baseline, Mean (SD)",[2],−60.22 (47.52) %
same,"HSS7 Percent change from baseline, Median",[2],−88.24%
same,"HSS7 Change from baseline, Mean (SD)",[3],−4.20 (4.74)
same,"HSS7 Change from baseline, Median",[3],−3.00
same,"HSS7 Percent change from baseline, Mean (SD)",[3],−26.30 (29.41) %
same,"HSS7 Percent change from baseline, Median",[3],−16.67%
same,"HSS7, Mean (SD)",[4],10.00 (NC)
same,"HSS7 Change from baseline, Mean (SD)",[4],−10.00 (NC)
same,"HSS7 Change from baseline, Median",[4],−10.00
same,"HSS7 Percent change from baseline, Mean (SD)",[4],−50.00 (NC) %
same,"HSS7 Percent change from baseline, Median",[4],−50.00%
same,"HSS7, Mean (SD)",[5],6.85 (4.96)
same,"HSS7, Median",[5],6.50
same,"HSS7 Change from baseline, Mean (SD)",[5],−7.21 (5.24)
same,"HSS7 Change from baseline, Median",[5],−6.58
same,"HSS7 Percent change from baseline, Mean (SD)",[5],−50.43 (33.03) %
same,"HSS7 Percent change from baseline, Median",[5],−50.69%
same,"HSS7, Mean (SD)",[6],3.92 (4.26)
same,"HSS7, Median",[6],3.17
same,"HSS7 Change from baseline, Mean (SD)",[6],−12.11 (6.81)
same,"HSS7 Change from baseline, Median",[6],−12.42
same,"HSS7 Percent change from baseline, Mean (SD)",[6],−73.06 (22.97) %
same,"HSS7 Percent change from baseline, Median",[6],−76.19%
same,"HSS7, Mean (SD)",[7],8.34 (6.75)
same,"HSS7, Median",[7],7.00
same,"HSS7 Change from baseline, Mean (SD)",[7],−6.01 (5.82)
same,"HSS7 Change from baseline, Median",[7],−7.00
same,"HSS7 Percent change from baseline, Mean (SD)",[7],−43.27 (41.28) %
same,"HSS7 Percent change from baseline, Median",[7],−42.86%
same,"HSS7, Mean (SD)",[8],4.25 (8.50)
same,"HSS7, Median",[8],0.00
same,"HSS7 Change from baseline, Median",[8],−14.50
same,"HSS7 Percent change from baseline, Mean (SD)",[8],−75.00 (50.00) %
same,"HSS7 Percent change from baseline, Median",[8],−100.00%
same,"HSS7, Mean (SD)",[9],9.63 (5.13)
same,"HSS7, Median",[9],8.20
same,"HSS7 Change from baseline, Mean (SD)",[9],−5.12 (5.22)
same,"HSS7 Change from baseline, Median",[9],−3.50
same,"HSS7 Percent change from baseline, Mean (SD)",[9],−32.44 (31.06) %
same,"HSS7 Percent change from baseline, Median",[9],−26.11%
same,"HSS7, Mean (SD)",[10],8.00 (NC)
same,"HSS7, Median",[10],8.00
same,"HSS7 Change from baseline, Mean (SD)",[10],−12.00 (NC)
same,"HSS7 Change from baseline, Median",[10],−12.00
same,"HSS7 Percent change from baseline, Mean (SD)",[10],−60.00 (NC) %
same,"HSS7 Percent change from baseline, Median",[10],−60.00%
same,"HSS7, Mean (SD)",[11],6.49 (5.14)
same,"HSS7, Median",[11],6.00
same,"HSS7 Change from baseline, Mean (SD)",[11],−7.57 (5.71)
same,"HSS7 Change from baseline, Median",[11],−7.00
same,"HSS7 Percent change from baseline, Mean (SD)",[11],−52.28 (34.93) %
same,"HSS7 Percent change from baseline, Median",[11],−50.00%
same,"HSS7, Mean (SD)",[12],3.42 (4.45)
same,"HSS7, Median",[12],2.50
same,"HSS7 Change from baseline, Mean (SD)",[12],−12.61 (7.49)
same,"HSS7 Change from baseline, Median",[12],−12.00
same,"HSS7 Percent change from baseline, Mean (SD)",[12],−75.12 (24.22) %
same,"HSS7 Percent change from baseline, Median",[12],−75.37%
same,"HSS7, Mean (SD)",[13],8.17 (6.62)
same,"HSS7, Median",[13],7.00
same,"HSS7 Change from baseline, Mean (SD)",[13],−6.17 (6.01)
same,"HSS7 Change from baseline, Median",[13],−6.42
same,"HSS7 Percent change from baseline, Mean (SD)",[13],−43.56 (44.25) %
same,"HSS7 Percent change from baseline, Median",[13],−47.73%
same,"HSS7, Mean (SD)",[14],5.97 (7.25)
same,"HSS7, Median",[14],3.50
same,"HSS7 Change from baseline, Mean (SD)",[14],−8.83 (9.41)
same,"HSS7 Change from baseline, Median",[14],−12.00
same,"HSS7 Percent change from baseline, Mean (SD)",[14],−50.00 (62.36) %
same,"HSS7 Percent change from baseline, Median",[14],−83.33%
same,"HSS7, Mean (SD)",[15],9.94 (5.76)
same,"HSS7, Median",[15],8.28
same,"HSS7 Change from baseline, Mean (SD)",[15],−5.20 (5.64)
same,"HSS7 Change from baseline, Median",[15],−4.50
same,"HSS7 Percent change from baseline, Mean (SD)",[15],−33.60 (35.00) %
same,"HSS7 Percent change from baseline, Median",[15],−37.09%
same,"HSS7, Mean (SD)",[16],8.00 (NC)
same,"HSS7, Median",[16],8.00
same,"HSS7 Change from baseline, Mean (SD)",[16],−12.00 (NC)
same,"HSS7 Change from baseline, Median",[16],−12.00
same,"HSS7 Percent change from baseline, Mean (SD)",[16],−60.00 (NC) %
same,"HSS7 Percent change from baseline, Median",[16],−60.00%
same,"HSS7, Mean (SD)",[17],6.78 (5.55)
same,"HSS7, Median",[17],6.00
same,"HSS7 Change from baseline, Mean (SD)",[17],−7.22 (6.24)
same,"HSS7 Change from baseline, Median",[17],−7.00
same,"HSS7 Percent change from baseline, Mean (SD)",[17],−49.49 (37.97) %
same,"HSS7 Percent change from baseline, Median",[17],−46.15%
same,"HSS7, Mean (SD)",[18],2.83 (4.62)
same,"HSS7, Median",[18],1.00
same,"HSS7 Change from baseline, Mean (SD)",[18],−13.19 (6.97)
same,"HSS7 Change from baseline, Median",[18],−13.00
same,"HSS7 Percent change from baseline, Mean (SD)",[18],−81.39 (23.52) %
same,"HSS7 Percent change from baseline, Median",[18],−91.50%

# — patent US20260256792A1, “TREATMENT OF CHRONIC SPONTANEOUS URTICARIA BY ADMINISTERING (R)-2-[3-[4-AMINO-3-(2-FLUORO-4-PHENOXY-PHENYL)PYRAZOLO[3,4-D]PYRIMIDIN-1-YL]PIPERIDINE-1-CARBONYL]-4-METHYL-4-[4-(OXETAN-3-YL)PIPERAZIN-1-YL]PENT-2-ENENITRILE” (priority 2023, published 2026)
